From ChEMBL document CHEMBL1150438, “Benzimidazole ribonucleosides: Observation of an unexpected nitration when performing non-aqueous diazotizations with t-butyl nitrite” (Bioorg Med Chem Lett, 1992)

Key:
[1] = system: Human betaherpesvirus 5; assay: Compound was tested for antiviral activity against human cytomegalovirus (HCMV) yield reduction assay; format: functional
[2] = system: HFF; assay: Cytotoxicity against human foreskin fibroblasts (HFF) cells; format: functional, cell-based
[3] = system: Human betaherpesvirus 5; assay: Compound was tested for antiviral activity against human cytomegalovirus (HCMV) plaque reduction assay; format: functional, organism-based
[4] = system: Human alphaherpesvirus 1; assay: Compound was tested for antiviral activity against HSV-1; format: functional, organism-based

Row | Structure (SMILES) | IC90 [1] [µM] | IC50 [2] [µM] | IC50 [3] [µM] | IC50 [4] [µM]
1 | Nc1nc2c(ncn2COC(CO)CO)c(=O)[nH]1 [GANCICLOVIR] | 2 | > 100 | – | –
2 | Nc1c(Cl)c(Cl)cc2c1nc(O)n2C1O[C@H](CO)[C@@H](O)[C@H]1O (some centres not stated) | – | > 100 | > 100 | > 100
3 | OC[C@H]1OC(n2c(I)nc3cc(Cl)c(Cl)cc32)[C@H](O)[C@@H]1O (some centres not stated) | 26 | 127 | – | –
4 | OC[C@H]1OC(n2c(O)nc3cc(Cl)c(Cl)cc32)[C@H](O)[C@@H]1O (some centres not stated) | – | – | > 100 | > 100
5 | OC[C@H]1O[C@@H](n2cnc3cc(Cl)c(Cl)cc32)[C@H](O)[C@@H]1O [DICHLORORIBOBENZIMIDAZOLE] | 19 | – | – | –
6 | O=[N+]([O-])c1c(Cl)c(Cl)cc2c1nc(O)n2C1O[C@H](CO)[C@@H](O)[C@H]1O (some centres not stated) | – | – | > 100 | > 100
